Data from patent EP2647379A1, “Combined use of a steroid sulfatase inhibitor for the treatment of endometriosis” (PregLem S.A., priority 2012, dated 2013).
Where two headings read alike, the source gives them in different places. One block for each compound: values may come before it.

Legend:
STS [1] = biological target: T1, STS (Homo sapiens, UniProt P08842); details: cited from earlier work
T1 sequence (P08842 22-583): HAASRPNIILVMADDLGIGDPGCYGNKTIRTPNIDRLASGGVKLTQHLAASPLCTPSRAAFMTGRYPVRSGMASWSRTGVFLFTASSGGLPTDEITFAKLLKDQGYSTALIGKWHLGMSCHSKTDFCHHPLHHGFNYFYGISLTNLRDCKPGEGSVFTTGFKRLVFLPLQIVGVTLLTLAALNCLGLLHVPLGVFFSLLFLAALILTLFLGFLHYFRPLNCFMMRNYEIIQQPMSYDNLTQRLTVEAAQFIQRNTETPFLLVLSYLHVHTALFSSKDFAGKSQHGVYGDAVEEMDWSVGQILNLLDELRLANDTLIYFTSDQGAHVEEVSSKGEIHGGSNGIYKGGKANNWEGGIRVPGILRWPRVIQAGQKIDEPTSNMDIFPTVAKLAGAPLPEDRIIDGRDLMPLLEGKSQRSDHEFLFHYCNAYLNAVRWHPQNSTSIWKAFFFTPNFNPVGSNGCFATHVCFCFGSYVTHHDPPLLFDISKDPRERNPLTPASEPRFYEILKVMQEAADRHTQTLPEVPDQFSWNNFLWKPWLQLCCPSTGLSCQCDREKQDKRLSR

[2] = Follow-up effect on post-treatment menstruation cycles (ovarian and transvaginal ultrasound)
Description: Menstruation cycle length was not influenced by the treatment. […] Sizes of right and left ovary differed slightly for each subject, but no clinically relevant changes were identified by the gynaecologists.

STS [3] = biological target: T1, STS; details: for AVG [%]: Average inhibition of Steroid Sulfatase in endometrium, Mean (SD), N = 8
Description: (§1) Blood samples were collected from each subject in order to determine pharmacodynamic parameters (sulfatase activity and hormonal profile). Ovarian and endometrium transvaginal ultrasounds throughout the study and an endometrial biopsy were performed.
(§2) The biopsy was scheduled between 5 to 8 days before the anticipated onset of the next menstrual cycle after treatment and 1 month after treatment cessation.
(§3) STS activity was determined by spiking specimens with labelled EI-S and by measuring its conversion to E1 per gram protein under standardized incubation conditions using LC-MS/MS. Protein concentration was evaluated with a validated colorimetric assay (Bradford method).

STS [4] = biological target: T1, STS; test: in vivo
Description: as §1, §2, §3

STS [5] = biological target: STS (Mus musculus, UniProt P50427); details: mice, cited from earlier work
Sequence of STS (Mus musculus, UniProt P50427) (P50427 23-624): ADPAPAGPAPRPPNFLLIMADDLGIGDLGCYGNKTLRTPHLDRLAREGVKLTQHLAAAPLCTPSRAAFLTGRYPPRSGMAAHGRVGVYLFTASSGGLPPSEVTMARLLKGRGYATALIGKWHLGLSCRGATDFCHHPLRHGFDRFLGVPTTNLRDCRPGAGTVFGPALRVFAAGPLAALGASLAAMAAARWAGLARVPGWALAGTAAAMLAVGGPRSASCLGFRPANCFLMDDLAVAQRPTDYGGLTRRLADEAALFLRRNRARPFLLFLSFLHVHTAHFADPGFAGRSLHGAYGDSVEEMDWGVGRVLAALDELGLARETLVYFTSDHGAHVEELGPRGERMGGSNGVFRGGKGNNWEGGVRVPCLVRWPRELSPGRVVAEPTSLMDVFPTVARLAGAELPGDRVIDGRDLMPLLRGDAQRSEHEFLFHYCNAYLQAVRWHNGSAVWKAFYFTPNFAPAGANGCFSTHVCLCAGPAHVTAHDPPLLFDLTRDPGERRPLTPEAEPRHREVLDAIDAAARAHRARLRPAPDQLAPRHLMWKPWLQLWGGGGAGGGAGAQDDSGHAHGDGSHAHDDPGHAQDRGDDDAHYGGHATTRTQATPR

[6] = multiple doses of 4 mg E2MATE, 10 mg NETA, for 4 weeks
[7] = Serum hormonal profile (E2, P4, T, D4A) by ELISA; type: in vivo, healthy pre-menopausal women; details: for mean concentration-time profiles for D4A / mean concentration-time profiles for T: after multiple dose administration; for E2 concentrations / P4 concentrations: mean concentration-time profile, suppression during the first cycle up to Day 29, normal increase on Day 43
Description: (§4) Blood samples were collected from each subject in order to determine pharmacodynamic parameters (sulfatase activity and hormonal profile).
(§5) STS activity was determined by spiking specimens with labelled EI-S and by measuring its conversion to E1 per gram protein under standardized incubation conditions using LC-MS/MS. Protein concentration was evaluated with a validated colorimetric assay (Bradford method). The serum samples for hormonal profile were analysed by specific and validated ELISA methods.

STS [8] = biological target: T1, STS; details: cited from earlier work; remark: listed apart in the source
STS activity = test system: STS activity
Description: The above effect is confirmed on functional biomarkers of STS activity for at least 84 days. As described before, STS converts sulphate precursors of estrogens. Thus, by inhibiting STS activity a reduction in serum levels of estrone and DHEA and an increase in estrone sulphate and DHEA sulphate are expected. This effect is described by baseline corrected fold-changes of the E1-S to E1 and DHEA-S to DHEA ratios over time (study days).

STS [9] = biological target: T1, STS; details: in vivo
Description: as §4, §5

STS [10] = biological target: T1, STS; test: STS activity in PBMCs (Phase I study, labelled E1-S conversion to E1, LC-MS/MS)
Description: as §4, §5

[11] = daily oral 0.5 or 1 mg/kg for 21 days, end of the treatment
[12] = maximum during the NETA treatment period (values of days 8 to 29)

SMILES: NS(=O)(=O)Oc1ccc2c3c(c(=O)oc2c1)CCCCC3
blocking STS activity in both eutopic and ectopic tissues (STS [1]): effective

SMILES: C[C@]12CC[C@@H]3c4ccc(OS(N)(=O)=O)cc4CC[C@H]3[C@@H]1CC[C@@H]2O [E2MATE, Estradiol-3-o-sulfamate]
effect on ovarian size [2]: no apparent effect | AVG [%] (STS [3]): 66.6 (2.7) % | AVG (average effect over time (AUC)) (STS [3]; STS inhibition in endometrium samples): 66.60% | After treatment (STS [3]; STS inhibition in endometrium samples, second row of Table 2): 87.50% | Emax (STS [4]; read-out: Emax (maximal observed effect)): 91% | inhibition at 4 mg (STS [4]; read-out: STS inhibition in endometrium): 91% | lesion weight and size (STS [5]; [11]): decreased | number of lesions (STS [5]; [11]): without a reduction | STS activity inhibition in the uterus or in induced lesions (STS [5]; daily oral dose, highest dose (1 mg/kg) for 21 days): ≤ 36% | tolerability [6]: well tolerated | mean concentration-time profiles for D4A [7]: No relevant differences | mean concentration-time profiles for T [7]: No relevant differences | E2 concentrations [7]: Normal mean concentration-time profiles | P4 concentrations [7]: Normal mean concentration-time profiles | STS inhibitor activity (STS [8]): active STS inhibitors | Baseline relative change of the DHEA-S / DHEA [%] (STS activity; Day 1): 0% | Baseline relative change of the E1-S / E1 [%] (STS activity; Day 1): 0% | Baseline relative change of the DHEA-S / DHEA [%] (STS activity; Day 8): 133% | Baseline relative change of the E1-S / E1 [%] (STS activity; Day 8): 208% | Baseline relative change of the DHEA-S / DHEA [%] (STS activity; Day 15): 116% | Baseline relative change of the E1-S / E1 [%] (STS activity; Day 15): 282% | Baseline relative change of the DHEA-S / DHEA [%] (STS activity; Day 22): 113% | Baseline relative change of the E1-S / E1 [%] (STS activity; Day 22): 218% | Baseline relative change of the DHEA-S / DHEA [%] (STS activity; Day 29): 148% | Baseline relative change of the E1-S / E1 [%] (STS activity; Day 29): 194% | Baseline relative change of the DHEA-S / DHEA [%] (STS activity; Day 57): 195% | Baseline relative change of the E1-S / E1 [%] (STS activity; Day 57): 218% | Baseline relative change of the DHEA-S / DHEA [%] (STS activity; Day 85): 232% | Baseline relative change of the E1-S / E1 [%] (STS activity; Day 85): 243% | Baseline relative change of the DHEA-S / DHEA [%] (STS activity; Day 113): 175% | Baseline relative change of the E1-S / E1 [%] (STS activity; Day 113): 400% | DHEA-S to DHEA ratios increased (STS activity; [12]): up to 265% | baseline relative mean increases of the E1-S to E1 ratio (STS activity; [12]): up to 282%

SMILES: C[C@]12CC[C@@H]3c4ccc(OS(N)(=O)=O)cc4CC[C@H]3[C@@H]1CCC2=O [EMATE, Estrone-3-o-sulfamate]
STS inhibitor activity (STS [8]): active STS inhibitors

effect on ovarian size [2]: no apparent effect | AVG [%] (STS [3]): 14.9 (27.0) % | Emax (STS [4]): 46.7% | inhibition (STS [9]): 12% | average inhibition (STS [10]): 4%
SMILES: C#C[C@]1(OC(C)=O)CC[C@H]2[C@@H]3CCC4=CC(=O)CC[C@@H]4[C@H]3CC[C@@]21C [NETA, norethindrone acetate, reference compound]
mean concentration-time profiles for D4A [7]: No relevant differences | mean concentration-time profiles for T [7]: No relevant differences | E2 concentrations [7]: suppressed | P4 concentrations [7]: suppressed
